From patent publication US9695155B2, “Herbicidal substituted pyrimidinyloxy benzene compounds” (E. I. DU PONT DE NEMOURS AND COMPANY, priority 2013, dated 2017)

Key:
[1] = tested on: large (Lg) crabgrass; assay: Test A preemergence; type: in vivo, Digitaria sanguinalis; details: for Crabgrass, Large plant response rating: approx. 10 days
Description: (§1) Seeds of plant species selected from barnyardgrass (Echinochloa crus-galli), kochia (Kochia scoparia), ragweed (common ragweed, Ambrosia elatior), Italian ryegrass (Lolium multiflorum), large (Lg) crabgrass (Digitaria sanguinalis), giant foxtail (Setaria faberii), morningglory (Ipomoea spp.), pigweed (Amaranthus retroflexus), velvetleaf (Abutilon theophrasti), wheat (Triticum aestivum), and corn (Zea mays) were planted into a blend of loam soil and sand and treated preemergence with a directed soil spray using test chemicals formulated in a non-phytotoxic solvent mixture which included a surfactant.
(§2) At the same time, plants selected from these crop and weed species and also blackgrass (Alopecurus myosuroides), and galium (catchweed bedstraw, Galium aparine) were planted in pots containing the same blend of loam soil and sand and treated with postemergence applications of test chemicals formulated in the same manner. Plants ranged in height from 2 to 10 cm and were in the one- to two-leaf stage for the postemergence treatment. Treated plants and untreated controls were maintained in a greenhouse for approximately 10 days, after which time all treated plants were compared to untreated controls and visually evaluated for injury. Plant response ratings, summarized in Table A, are based on a 0 to 100 scale where 0 is no effect and 100 is complete control. A dash (-) response means no test result.

[2] = tested on: barnyardgrass; assay: Test A preemergence; type: in vivo, Echinochloa crus-galli; details: for Barnyardgrass plant response rating: approx. 10 days
Description: as §1, §2

[3] = tested on: velvetleaf; assay: Test A postemergence; type: in vivo, Abutilon theophrasti
Description: as §1, §2

[4] = tested on: morningglory; assay: Test A postemergence; type: in vivo, Ipomoea spp.; details: 1000 g ai/ha, 0 to 100 scale, 0 no effect, 100 complete control
Description: as §1, §2

[5] = tested on: wheat; assay: Test A postemergence; type: in vivo, Triticum aestivum
Description: as §1, §2

[6] = tested on: velvetleaf; assay: Test A preemergence; type: in vivo, Abutilon theophrasti; details: for Velvetleaf plant response rating: 0 to 100 scale, 0 no effect, 100 complete control, approx. 10 days
Description: as §1, §2

[7] = tested on: barnyardgrass; assay: Test A postemergence; type: in vivo, Echinochloa crus-galli
Description: as §1, §2

[8] = tested on: morningglory; assay: Test A preemergence; type: in vivo, Ipomoea spp.; details: 1000 g ai/ha, 0 to 100 scale, 0 no effect, 100 complete control, approx. 10 days
Description: as §1, §2

[9] = tested on: wheat; assay: Test A preemergence; type: in vivo, Triticum aestivum; details: for Wheat plant response rating: 0 to 100 scale, 0 no effect, 100 complete control, approx. 10 days
Description: as §1, §2

[10] = tested on: corn; assay: Test A postemergence; type: in vivo, Zea mays
Description: as §1, §2

[11] = tested on: giant foxtail; assay: Test A preemergence; type: in vivo, Setaria faberii; details: for Foxtail, Giant plant response rating: 0 to 100 scale, 0 no effect, 100 complete control, approx. 10 days
Description: as §1, §2

[12] = tested on: large (Lg) crabgrass; assay: Test A postemergence; type: in vivo, Digitaria sanguinalis
Description: as §1, §2

[13] = tested on: giant foxtail; assay: Test A postemergence; type: in vivo, Setaria faberii
Description: as §1, §2

[14] = tested on: pigweed; assay: Test A postemergence; type: in vivo, Amaranthus retroflexus
Description: as §1, §2

[15] = tested on: corn; assay: Test A preemergence; type: in vivo, Zea mays; details: for Corn plant response rating: approx. 10 days
Description: as §1, §2

[16] = tested on: pigweed; assay: Test A preemergence; type: in vivo, Amaranthus retroflexus; details: for Pigweed plant response rating: 0 to 100 scale, 0 no effect, 100 complete control, approx. 10 days
Description: as §1, §2

[17] = tested on: Heteranthera limosa; assay: Test B flooded paddy test; type: in vivo; details: Flood, 250 g ai/ha; 0 to 100 scale where 0 is no effect and 100 is complete control
Description: (§3) Plant species in the flooded paddy test selected from rice (Oryza sativa), sedge, umbrella (small-flower umbrella sedge, Cyperus difformis), (Heteranthera limosa), and barnyardgrass (Echinochloa crus-galli) were grown to the 2-leaf stage for testing. At time of treatment, test pots were flooded to 3 cm above the soil surface, treated by application of test compounds directly to the paddy water, and then maintained at that water depth for the duration of the test. Treated plants and controls were maintained in a greenhouse for 13 to 15 days, after which time all species were compared to controls and visually evaluated. Plant response ratings, summarized in Table B, are based on a scale of 0 to 100 where 0 is no effect and 100 is complete control. A dash (-) response means no test result.

[18] = tested on: barnyardgrass; assay: Test B flooded paddy test; type: in vivo, Echinochloa crus-galli; details: Flood, 250 g ai/ha; 0 to 100 scale where 0 is no effect and 100 is complete control
Description: as §3

[19] = tested on: sedge, umbrella; assay: Test B flooded paddy test; type: in vivo, Cyperus difformis; details: Flood, 250 g ai/ha; 0 to 100 scale where 0 is no effect and 100 is complete control
Description: as §3

[20] = tested on: rice; assay: Test B flooded paddy test; type: in vivo, Oryza sativa; details: Flood, 250 g ai/ha; 0 to 100 scale where 0 is no effect and 100 is complete control
Description: as §3

[21] = 1000 g ai/ha, 0 to 100 scale, 0 no effect, 100 complete control
[22] = 125 g ai/ha, 0 to 100 scale where 0 is no effect and 100 is complete control
[23] = 500 g ai/ha, 0 to 100 scale, 0 no effect, 100 complete control

N#Cc1cnn(-c2ccccc2Oc2ncc(Cl)cn2)n1 [Compound 55]
Plant response rating, Crabgrass, Large [1, 21]: 90 | Plant response rating, Barnyardgrass [2, 21]: 40 | Plant response rating, Velvetleaf [3, 21]: 100 | Plant response rating, Morningglory [4]: 80 | Plant response rating, Wheat [5, 21]: 0 | Velvetleaf plant response rating ([6]; 1000 g ai/ha): 100 | Plant response rating, Barnyardgrass [7, 21]: 10 | Morningglory plant response rating [8]: 0 | Wheat plant response rating ([9]; 1000 g ai/ha): 0 | Plant response rating, Corn [10, 21]: 20 | Foxtail, Giant plant response rating ([11]; 1000 g ai/ha): 90 | Plant response rating, Crabgrass, Large [12, 21]: 40 | Plant response rating, Foxtail, Giant [13, 21]: 60 | Plant response rating, Pigweed [14, 21]: 90 | Plant response rating, Corn [15, 21]: 0 | Pigweed plant response rating ([16]; 1000 g ai/ha): 90

Clc1cnc(Oc2ccccc2-n2cc(Cl)nn2)nc1 [Compound 224]
Crabgrass, Large plant response rating [1, 21]: 100 | Barnyardgrass plant response rating [2, 21]: 100 | Plant response rating, Velvetleaf [3, 21]: 100 | Plant response rating, Morningglory [4]: 100 | Plant response rating, Wheat [5, 21]: 60 | Velvetleaf plant response rating ([6]; 1000 g ai/ha): 100 | Plant response rating, Barnyardgrass [7, 21]: 90 | Morningglory plant response rating [8]: 90 | Wheat plant response rating ([9]; 1000 g ai/ha): 60 | Plant response rating, Corn [10, 21]: 50 | Foxtail, Giant plant response rating ([11]; 1000 g ai/ha): 100 | Plant response rating, Crabgrass, Large [12, 21]: 80 | Plant response rating, Foxtail, Giant [13, 21]: 90 | Plant response rating, Pigweed [14, 21]: 100 | Corn plant response rating [15, 21]: 40 | Pigweed plant response rating ([16]; 1000 g ai/ha): 100

N#Cc1cnn(-c2ccccc2Oc2ncc(Cl)cn2)c1 [Compound 33]
Plant response rating, Crabgrass, Large [1, 22]: 90 | Crabgrass, Large plant response rating [1, 23]: 100 | Plant response rating, Barnyardgrass [2, 22]: 0 | Barnyardgrass plant response rating [2, 23]: 70 | Plant response rating, Velvetleaf [3, 22]: 100 | Plant response rating, Velvetleaf [3, 23]: 100 | Plant response rating, Wheat [5, 22]: 0 | Plant response rating, Wheat [5, 23]: 90 | Plant response rating, Velvetleaf [6, 22]: 50 | Velvetleaf plant response rating ([6]; 500 g ai/ha): 100 | Plant response rating, Barnyardgrass [7, 22]: 0 | Plant response rating, Barnyardgrass [7, 23]: 100 | Plant response rating, Wheat [9, 22]: 0 | Wheat plant response rating ([9]; 500 g ai/ha): 0 | Plant response rating, Ducksalad [17]: 80 | Plant response rating, Corn [10, 22]: 0 | Plant response rating, Corn [10, 23]: 100 | Plant response rating, Barnyardgrass [18]: 10 | Plant response rating, Sedge, Umbrella [19]: 20 | Plant response rating, Foxtail, Giant [11, 22]: 90 | Foxtail, Giant plant response rating ([11]; 500 g ai/ha): 100 | Plant response rating, Crabgrass, Large [12, 22]: 20 | Plant response rating, Crabgrass, Large [12, 23]: 80 | Plant response rating, Foxtail, Giant [13, 22]: 70 | Plant response rating, Foxtail, Giant [13, 23]: 100 | Plant response rating, Rice [20]: 0 | Plant response rating, Pigweed [14, 22]: 100 | Plant response rating, Pigweed [14, 23]: 100 | Plant response rating, Corn [15, 22]: 0 | Corn plant response rating [15, 23]: 0 | Plant response rating, Pigweed [16, 22]: 100 | Pigweed plant response rating ([16]; 500 g ai/ha): 100
